Source: patent US20120269913A1, “CRUDE CAFFEINE COMPLEX, IMPROVED FOOD PRODUCTS USING THE CRUDE CAFFEINE COMPLEX, AND METHODS OF USE THEREOF” (priority 2009, published 2012)
Like-named read-outs stand apart in the source and are kept apart here.

Experiments:
[1] = ORAC assay adapted for the linoleate microemulsion system, combination with α-tocopherol; settings: in combination with α-tocopherol; 100% = additive, >100% = synergistic
Description: Using an ORAC assay adapted for the linoleate microemulsion system (Sim, W. L. S. et al., Journal of Agricultural and Food Chemistry 57: 3409-3414 (2009)), we determined the antioxidant activity of α-tocopherol (a form of vitamin E) combined with crude caffeine, ascorbic acid, and chlorogenic acid. Data were expressed as relative ORAC: a relative ORAC of 100% means that the antioxidant activity of the mixture equaled the sum of each component's antioxidant activity (additive effect), whereas a relative ORAC greater than 100% means that the antioxidant activity of the mixture was greater than the sum of each component's antioxidant activity (synergistic effect).
In a 15-mL test tube, methyl linoleate (1.2 g), Tween-20 (2.9 g), n-butanol (1.5 g), and potassium phosphate buffer (4.4 g) were vortexed until the resulting solution was clear. […] A control well containing 200 μL of microemulsion and 40 μL of phosphate buffer was used to normalize the fluorescence reading. The reaction kinetics were monitored at 37° C. for 2 h, with readings every 2 min, by a Synergy HT microplate fluorescent reader (Biotek Instruments Inc.). The microplate reader was fitted with an excitation filter at 485 nm, an emission filter of 590 nm, and an oxygen sensor biosystem, and the plate was shaken for 20 s at low intensity before each reading to ensure sufficient mixing. […]

[2] = tested on: human skeletal muscle cells; test: Glucose uptake (3H-2-deoxyglucose) in human skeletal muscle cells; type: cell-based; settings: about 0.01 mg/mL, p<0.05
Description: (§1) The effect of the crude caffeine extract of Example 1 on glucose uptake in both human adipocytes (fat) and skeletal muscle cells (SMC) was tested (Zen Bio Research, Triangle Park, N.C.).
(§2) Data were analyzed by one-way ANOVA followed by Tukey's post hoc test for multiple comparisons. In FIG. 6, results are expressed as mean±SD. The asterisk * denotes P<0.05 compared with human skeletal muscle cells; the carrot top A denotes P<0.05 compared with untreated human adipocytes.
(§3) Glucose uptake. The in vitro effects of crude caffeine on glucose uptake were assessed with human adipocytes and skeletal muscle cells (Zen-Bio, Research Triangle Park, N.C.). Briefly, primary human subcutaneous adipocytes or primary human myoblasts were differentiated in 96-well microplates. […] All samples, including the positive and negative controls, were tested in triplicate. After a 2-h incubation at 37° C. and 5% CO2, the cells were washed with PBS and lysed. The cell lysate was mixed with scintillation fluid and radioactivity of each well was measured as counts per minute (CPM).

human adipocytes = test: Glucose uptake (3H-2-deoxyglucose) in human adipocytes; type: cell-based; settings: about 0.01 mg/mL, p<0.05
Description: as §1, §2, §3

COX-2 enzyme = molecular target: T1, COX-2 enzyme (Homo sapiens, UniProt P35354); test: COX-2 inhibition (oxygen consumption); type: biochemical
T1 sequence (P35354 18-604): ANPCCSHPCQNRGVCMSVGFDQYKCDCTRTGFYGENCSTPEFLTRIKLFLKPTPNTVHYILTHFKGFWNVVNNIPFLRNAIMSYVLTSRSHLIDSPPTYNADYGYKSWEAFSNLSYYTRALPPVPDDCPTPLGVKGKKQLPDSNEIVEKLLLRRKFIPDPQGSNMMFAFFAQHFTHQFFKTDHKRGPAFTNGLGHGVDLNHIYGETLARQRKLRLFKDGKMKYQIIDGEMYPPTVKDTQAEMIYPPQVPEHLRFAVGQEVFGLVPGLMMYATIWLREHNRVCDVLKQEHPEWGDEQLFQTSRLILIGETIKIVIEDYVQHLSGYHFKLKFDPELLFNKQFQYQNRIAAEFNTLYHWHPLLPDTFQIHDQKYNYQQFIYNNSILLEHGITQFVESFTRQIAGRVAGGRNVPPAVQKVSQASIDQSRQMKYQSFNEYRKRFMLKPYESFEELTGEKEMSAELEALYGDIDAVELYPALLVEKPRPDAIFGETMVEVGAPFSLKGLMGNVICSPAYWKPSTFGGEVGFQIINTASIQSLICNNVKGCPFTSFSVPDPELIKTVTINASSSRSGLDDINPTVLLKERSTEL
Description: As discussed above, the ability to inhibit the COX-2 enzyme is understood as providing anti-inflammatory activities. […] IC50 indicates the effective dose needed to achieve about 50 percent inhibition of the COX-2 enzyme.
COX-2 inhibition. Oxygen consumption was measured in the reaction chamber of an Oxytherm (Hansatech Instrumental, Norfolk, England) at 37° C. The reaction mixture consisting of 0.5 mL Tris buffer (0.1 M, pH 8.0), 5 μL heme [100 μM in dimethyl sulfoxide (DMSO)], and 10 μL of COX-2 enzyme was incubated for 1 min. Five microliters of each sample (in DMSO or ethanol) was added and the mixture was incubated for an additional 1 min. The assay was initiated by adding 5 μL arachidonic acid, and the oxygen concentration was monitored. The initial oxygen consumption rate was obtained from the kinetic curve. COX-2 inhibition was expressed as the inhibitor concentration at which the initial oxygen consumption rate decreased by 50% (IC50).

[3] = Oxygen radical absorbance capacity, hydrophilic fraction (ORAChydro); settings: crude caffeine complex of Example 1 vs pure caffeine
Description: Oxygen radical absorbance capacity. To determine antioxidant values of the hydrophilic fraction (ORAChydro), 5 g crude caffeine was extracted with 20 mL acetone/water (50:50 v/v) on an orbital shaker at room temperature for 1 h. The mixtures were centrifuged at 1972×g in a Rotanta 460R centrifuge (GMI, Ramsey, Minn.). […] The excitation wavelength was set at 485 (±20) nm and the emission wavelength set at 530 (±25) nm. To determine antioxidant values of the lipophilic fraction (ORAClipo), 5 g crude caffeine was extracted twice with 10 mL hexane/dichloromethane (50:50 v/v).

SMILES | relative ORAC [1] [%] | increase in glucose uptake as compared to a control [2] | increase in glucose uptake as compared to a control (human adipocytes) | COX-2 inhibitory activity (in words) (COX-2 enzyme) | COX-2 inhibitory activity (in words) (COX-2 enzyme; listed as Pure caffeine) | ORAChydro [3] [μmol TE/g]
O=C(/C=C/c1ccc(O)c(O)c1)O[C@@H]1C[C@](O)(C(=O)O)C[C@@H](O)[C@H]1O [chlorogenic acid] | 168 | – | – | – | – | –
Cn1c(=O)c2c(ncn2C)n(C)c1=O [pure caffeine, 1,3,7-trimethylxanthine] | – | no such effect | no such effect | no such inhibitory activity | did not inhibit COX-2 activity | 5
O=C1O[C@H]([C@@H](O)CO)C(O)=C1O [ascorbic acid] | 100 | – | – | – | – | –
